Assay results reported in PubChem BioAssay AID248 (DTP/NCI, 2004).
Toxic doses and inconclusive results are not listed. Cut-off read from the data, not from the text of the source: active = T/C of 150% or more; inactive = T/C below 125%.

System: L1210 leukemia ip in BDF1 mice, survival T/C
Test: NCI In Vivo Anticancer Drug Screen. Data for tumor model L1210 Leukemia (intraperitoneal) in B6D2F1 (BDF1) mice
Conditions: endpoint: mean survival time, higher = longer survival
Outline: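 Survival endpoint. Drug-treated group vs vehicle group, expressed as T divided by C. Tumor passaged by transplantation.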

[1] = dose: 50.0 mg/kg/injection, schedule: Q04DX003 (ip), vehicle: Klucel (hydroxypropylcellulose) (HPC)
[2] = dose: 100.0 mg/kg/injection, schedule: Q04DX003 (ip), vehicle: Klucel (hydroxypropylcellulose) (HPC)
[3] = dose: 200.0 mg/kg/injection, schedule: Q04DX003 (ip), vehicle: Klucel (hydroxypropylcellulose) (HPC)
[4] = dose: 100.0 mg/kg/injection, schedule: Q01DX009 (ip), vehicle: Klucel (hydroxypropylcellulose) (HPC)
[5] = dose: 200.0 mg/kg/injection, schedule: Q01DX009 (ip), vehicle: Klucel (hydroxypropylcellulose) (HPC)
[6] = dose: 400.0 mg/kg/injection, schedule: Q04DX003 (ip), vehicle: Klucel (hydroxypropylcellulose) (HPC)
[7] = dose: 25.0 mg/kg/injection, schedule: Q01DX009 (ip), vehicle: saline with Tween-80
[8] = dose: 50.0 mg/kg/injection, schedule: Q01DX009 (ip), vehicle: saline with Tween-80
[9] = dose: 50.0 mg/kg/injection, schedule: Q04DX003 (ip), vehicle: saline with Tween-80
[10] = dose: 100.0 mg/kg/injection, schedule: Q01DX009 (ip), vehicle: saline with Tween-80
[11] = dose: 100.0 mg/kg/injection, schedule: Q04DX003 (ip), vehicle: saline with Tween-80
[12] = dose: 200.0 mg/kg/injection, schedule: Q01DX009 (ip), vehicle: saline with Tween-80
[13] = dose: 200.0 mg/kg/injection, schedule: Q04DX003 (ip), vehicle: saline with Tween-80
[14] = dose: 400.0 mg/kg/injection, schedule: Q01DX009 (ip), vehicle: saline with Tween-80
[15] = dose: 25.0 mg/kg/injection, schedule: Q04DX002 (ip), vehicle: saline
[16] = dose: 50.0 mg/kg/injection, schedule: Q04DX002 (ip), vehicle: saline
[17] = dose: 100.0 mg/kg/injection, schedule: Q01DX009 (ip), vehicle: gum acacia
[18] = dose: 100.0 mg/kg/injection, schedule: Q04DX003 (ip), vehicle: gum acacia
[19] = dose: 200.0 mg/kg/injection, schedule: Q01DX009 (ip), vehicle: gum acacia
[20] = dose: 200.0 mg/kg/injection, schedule: Q04DX003 (ip), vehicle: gum acacia
[21] = dose: 400.0 mg/kg/injection, schedule: Q01DX009 (ip), vehicle: gum acacia

Measured: T/C

CC(C)C(=O)c1ccc(Cl)s1
inactive: dose: 100.0 mg/kg/injection, schedule: Q04DX003 (sc), vehicle: olive oil, sesame oil, peanut oil 104 % of control | dose: 200.0 mg/kg/injection, schedule: Q04DX003 (sc), vehicle: olive oil, sesame oil, peanut oil 107 % of control | dose: 400.0 mg/kg/injection, schedule: Q04DX003 (sc), vehicle: olive oil, sesame oil, peanut oil 96 % of control

O=S1(=O)N=C(Cl)c2ccccc21
inactive: [1] 105 % of control | [2] 108 % of control | [3] 97 % of control

CC(=O)OCC1OCOC2C(C(N)=O)OCOC12 (stereo not given)
inactive: dose: 100.0 mg/kg/injection, schedule: Q01DX001 (ip), vehicle: saline 103 % of control | dose: 200.0 mg/kg/injection, schedule: Q01DX001 (ip), vehicle: saline 103 % of control

CC(C)CC(C=NCC(CCN(C)C)(CC(C)C)c1cccc2ccccc12)(CCN(C)C)c1cccc2ccccc12 (stereo not given)
inactive: dose: 12.5 mg/kg/injection, schedule: Q01DX009 (ip), vehicle: Klucel (hydroxypropylcellulose) (HPC) 106 % of control | dose: 12.5 mg/kg/injection, schedule: Q04DX003 (ip), vehicle: Klucel (hydroxypropylcellulose) (HPC) 106 % of control | dose: 25.0 mg/kg/injection, schedule: Q01DX009 (ip), vehicle: Klucel (hydroxypropylcellulose) (HPC) 88 % of control | dose: 25.0 mg/kg/injection, schedule: Q04DX003 (ip), vehicle: Klucel (hydroxypropylcellulose) (HPC) 94 % of control | [1] 92 % of control

COc1ccc(CNC(=O)NCCCl)cc1OC
inactive: [4] 102 % of control | [2] 115 % of control | [5] 103 % of control | [3] 113 % of control | [6] 101 % of control

CS(=O)(=O)ON1C(=O)c2ccccc2C1=O
inactive: dose: 6.25 mg/kg/injection, schedule: Q01DX009 (ip), vehicle: saline with Tween-80 94 % of control | dose: 12.5 mg/kg/injection, schedule: Q01DX009 (ip), vehicle: saline with Tween-80 98 % of control | [7] 94 % of control | dose: 25.0 mg/kg/injection, schedule: Q04DX003 (ip), vehicle: saline 91 % of control | dose: 50.0 mg/kg/injection, schedule: Q04DX003 (ip), vehicle: saline 93 % of control

CC(C)CC(CC(C)C)OB(OC(CC(C)C)CC(C)C)OC(CC(C)C)CC(C)C
inactive: dose: 50.0 mg/kg/injection, schedule: Q01DX001 (ip), vehicle: other 96 % of control | dose: 100.0 mg/kg/injection, schedule: Q01DX001 (ip), vehicle: other 96 % of control | dose: 200.0 mg/kg/injection, schedule: Q01DX001 (ip), vehicle: other 96 % of control | dose: 400.0 mg/kg/injection, schedule: Q01DX001 (ip), vehicle: other 90 % of control

Nc1ccnc2snnc12
inactive: [8] 96 % of control | [9] 93 % of control | dose: 100.0 mg/kg/injection, schedule: Q01DX001 (ip), vehicle: saline with Tween-80 111 % of control | [10] 90 % of control | [11] 102 % of control | dose: 200.0 mg/kg/injection, schedule: Q01DX001 (ip), vehicle: saline with Tween-80 98 % of control | [12] 95 % of control | [13] 107 % of control

Clc1cccc(Cl)c1C[N+]12CN3CN(CN(C3)C1)C2
inactive: dose: 30.0 mg/kg/injection, schedule: Q01DX015 (ip), vehicle: saline 95 % of control | dose: 60.0 mg/kg/injection, schedule: Q01DX015 (ip), vehicle: saline 100 % of control | dose: 120.0 mg/kg/injection, schedule: Q01DX015 (ip), vehicle: saline 105 % of control

COC(=O)C1=C(\N2CCOCC2)CCCCC/C=C\1C(=O)OC
inactive: [10] 94 % of control | [12] 91 % of control | [14] 89 % of control

c1cc[c]([Sb]([S]c2ncnc3nc[nH]c23)[c]2ccccc2)cc1
inactive: dose: 5.0 mg/kg/injection, schedule: Q01DX001 (ip), vehicle: other 97 % of control | dose: 10.0 mg/kg/injection, schedule: Q01DX001 (ip), vehicle: other 116 % of control

O=C1CCCC/C1=C1/C(=O)Nc2ccccc21
inactive: [8] 104 % of control | [10] 118 % of control | [12] 110 % of control

CCCCCCCCCCCC[N+](C)(C)Cc1cc(=O)c(O)co1
inactive: dose: 12.5 mg/kg/injection, schedule: Q04DX002 (ip), vehicle: saline 94 % of control | [15] 105 % of control | [16] 115 % of control

Cc1cc(Cl)nc(Cl)n1
inactive: [15] 88 % of control | [16] 98 % of control | dose: 100.0 mg/kg/injection, schedule: Q04DX002 (ip), vehicle: saline 98 % of control

Cc1nnc(NS(=O)(=O)c2ccc(N=Nc3c(N)n(C)c(=O)n(C)c3=O)cc2)s1
inactive: dose: 100.0 mg/kg/injection, schedule: Q01DX001 (ip), vehicle: carboxymethylcellulose (CMC) 101 % of control | dose: 200.0 mg/kg/injection, schedule: Q01DX001 (ip), vehicle: carboxymethylcellulose (CMC) 95 % of control | dose: 400.0 mg/kg/injection, schedule: Q01DX001 (ip), vehicle: carboxymethylcellulose (CMC) 89 % of control

CCCCCCCCCCCCCCCCS(=O)(=O)c1ccc(Cl)cc1
inactive: [17] 91 % of control | [18] 94 % of control | [19] 92 % of control | [20] 93 % of control | [21] 91 % of control | dose: 400.0 mg/kg/injection, schedule: Q04DX003 (ip), vehicle: gum acacia 86 % of control

CCOC(=O)C1CCC(=O)N1 (stereo not given)
inactive: [2] 96 % of control | [3] 98 % of control | [6] 98 % of control

CCN(CC)CCOc1cccc(C)c1C
inactive: [7] 101 % of control | [8] 101 % of control | [9] 98 % of control | [10] 102 % of control | [11] 90 % of control

CCCCCC#CC(=O)OCCCC
inactive: dose: 100.0 mg/kg/injection, schedule: Q04DX002 (ip), vehicle: saline with Tween-80 102 % of control | dose: 200.0 mg/kg/injection, schedule: Q04DX002 (ip), vehicle: saline with Tween-80 94 % of control | dose: 400.0 mg/kg/injection, schedule: Q04DX002 (ip), vehicle: saline with Tween-80 108 % of control

Cc1cc(N(CCCOS(C)(=O)=O)CCCOS(C)(=O)=O)ccc1C=Nc1ccc(-c2csc(COc3ccc(Br)cc3Br)n2)cc1
inactive: [10] 88 % of control | [12] 91 % of control | [14] 96 % of control

O=C(C1C2C=CC(C2)C1C(=O)N1CCOCC1)N1CCOCC1 (stereo not given)
inactive: [11] 107 % of control | [13] 102 % of control | dose: 400.0 mg/kg/injection, schedule: Q04DX003 (ip), vehicle: saline with Tween-80 107 % of control

COc1cccc(C2NC(=O)N3C(c4cccc(OC)c4)NC(=O)N23)c1 (stereo not given)
inactive: [17] 98 % of control | [18] 97 % of control | [19] 91 % of control | [20] 95 % of control | [21] 91 % of control

CC(C)(O)CNS(=O)(=O)c1ccc(Br)cc1
inactive: [4] 105 % of control | [5] 101 % of control
